The molecules below were run against T1, hFXR (Homo sapiens, UniProt Q96RI1) (assay: In Vitro FXR Assay (TK): hFXR/hRXR TK-ECRE-luc reporter in transfected CV-1 cells). Conditions: CV-1 cells transfected with hFXR, hRXR, 18 hrs incubation, luminescence, maximum efficacy <25% of Fexarmine control also classified as ‘+’.
T1 construct: expressed in transfected cells; host or cells: CV-1 cells
T1 sequence (Q96RI1 1-486): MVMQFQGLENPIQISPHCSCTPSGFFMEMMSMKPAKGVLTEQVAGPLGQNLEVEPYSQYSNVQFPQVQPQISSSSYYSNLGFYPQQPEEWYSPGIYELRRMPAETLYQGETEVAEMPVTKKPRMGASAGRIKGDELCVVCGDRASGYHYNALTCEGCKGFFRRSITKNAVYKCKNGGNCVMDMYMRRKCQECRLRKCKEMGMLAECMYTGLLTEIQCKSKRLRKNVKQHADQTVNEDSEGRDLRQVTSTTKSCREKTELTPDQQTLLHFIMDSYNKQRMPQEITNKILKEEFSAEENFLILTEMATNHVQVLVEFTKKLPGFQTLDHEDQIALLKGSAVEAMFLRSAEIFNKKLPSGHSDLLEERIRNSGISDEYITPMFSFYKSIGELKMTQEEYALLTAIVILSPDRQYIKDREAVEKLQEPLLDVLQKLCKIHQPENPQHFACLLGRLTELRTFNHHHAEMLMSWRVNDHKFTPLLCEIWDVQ
T1 sequence (P19793 1-462 partner): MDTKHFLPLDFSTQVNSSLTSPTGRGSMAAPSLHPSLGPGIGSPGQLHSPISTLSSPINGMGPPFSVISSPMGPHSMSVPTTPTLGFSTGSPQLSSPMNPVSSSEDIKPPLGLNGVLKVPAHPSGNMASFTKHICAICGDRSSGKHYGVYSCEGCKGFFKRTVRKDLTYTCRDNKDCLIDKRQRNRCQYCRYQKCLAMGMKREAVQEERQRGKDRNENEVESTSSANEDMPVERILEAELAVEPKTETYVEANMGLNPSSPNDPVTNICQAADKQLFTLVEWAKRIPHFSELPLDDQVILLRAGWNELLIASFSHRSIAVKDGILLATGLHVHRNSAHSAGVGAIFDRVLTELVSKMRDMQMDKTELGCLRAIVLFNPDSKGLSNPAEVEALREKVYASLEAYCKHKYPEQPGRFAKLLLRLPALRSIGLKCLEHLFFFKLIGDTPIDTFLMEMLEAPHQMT
Type: cell-based
Method in brief: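 CV-1 cells in charcoal-stripped serum were transiently transfected with hFXR, hRXR, TK-ECRE-luc reporter and pCMX-YFP plasmids for 18 h at 37 °C. Serially diluted compounds were added for 18 h, then cells were lysed and luciferase luminescence read.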

EC50 | SMILES
≤ 500 nM | COc1ccc([C@H]2CC[C@H](CN(c3cccc(-c4cnc(C)o4)c3)C(=O)[C@H]3CC[C@H](O)CC3)CC2)cc1C [Compound 8, trans-4-Hydroxy-N-((trans-4-(4-methoxy-3-methylphenyl)cyclohexyl)methyl)-N-(3-(2-methyloxazol-5-yl)phenyl)cyclohexanecarboxamide]
≥ 1000 nM | COc1ccc([C@H]2CC[C@H](CN(c3cccc(-c4ncco4)c3)C(=O)[C@H]3CC[C@H](O)CC3)CC2)cc1C [Compound 3.01, trans-4-Hydroxy-N-((trans-4-(4-methoxy-3-methylphenyl)cyclohexyl)methyl)-N-(3-(oxazol-2-yl)phenyl)cyclohexanecarboxamide]
≤ 500 nM | COc1ccc([C@H]2CC[C@H](CN(c3cccc(-c4cc(C)no4)c3)C(=O)[C@H]3CC[C@H](O)CC3)CC2)cc1C [Compound 3, trans-4-Hydroxy-N-((trans-4-(4-methoxy-3-methylphenyl)cyclohexyl)methyl)-N-(3-(3-methylisoxazol-5-yl)phenyl)cyclohexanecarboxamide]
≥ 1000 nM | COc1ccc([C@H]2CC[C@H](CN(c3cccc(-c4cn(C)cn4)c3)C(=O)[C@H]3CC[C@H](O)CC3)CC2)cc1C [Compound 2.11, trans-4-Hydroxy-N-((trans-4-(4-methoxy-3-methylphenyl)cyclohexyl)methyl)-i-(3-(1-methyl-1H-imidazol-4-yl)phenyl)cyclohexanecarboxamide]
≤ 500 nM | COc1ccc(-c2cccc(N(C[C@H]3CC[C@H](c4ccc(OC)c(C)c4)CC3)C(=O)[C@H]3CC[C@H](O)CC3)c2)cn1 [Compound 1.01, trans-4-Hydroxy-N-((trans-4-(4-methoxy-3-methylphenyl)cyclohexyl)methyl)-N-(3-(6-methoxypyridin-3-yl)phenyl)cyclohexanecarboxamide]
≤ 500 nM | COc1ccc([C@H]2CC[C@H](CN(c3cccc(-c4coc(C5CC5)n4)c3)C(=O)[C@H]3CC[C@H](O)CC3)CC2)cc1C [Compound 9.15]
≤ 500 nM | COc1ccc([C@H]2CC[C@H](CN(c3cccc(-c4ccc(N(C)C)nc4)c3)C(=O)[C@H]3CC[C@H](O)CC3)CC2)nc1C [Compound 10.15, trans-N-(3-(6-(Dimethylamino)pyridine-3-yl)phenyl)-4-hydroxy-N-((trans-4-(5-methoxy-6-methylpyridin-2-yl)cyclohexyl)methyl) cyclohexanecarboxamide]
500 to 1000 nM | COc1ccc([C@H]2CC[C@H](CN(c3cccc(-c4ncsn4)c3)C(=O)[C@H]3CC[C@H](O)CC3)CC2)cc1C [Compound 9.07, trans-N-(3-(1,2,4-Thiadiazol-3-yl)phenyl)-4-hydroxy-N-((trans-4-(4-methoxy-3-methylphenyl)cyclohexyl)methyl) cyclohexanecarboxamide]
≤ 500 nM | COc1ccc([C@H]2CC[C@H](CN(c3cccc(C#Cc4cn(C)nn4)c3)C(=O)[C@H]3CC[C@H](O)CC3)CC2)cc1C [Compound 12.02, trans-4-Hydroxy-N-((trans-4-(4-methoxy-3-methylphenyl)cyclohexyl)methyl)-N-(3-((1-methyl-1H-1,2,3-triazol-4-yl)ethynyl)phenyl)cyclohexanecarboxamide]
≥ 1000 nM | COc1ccc([C@H]2CC[C@H](CN(c3cccc(-c4cncc(C(F)(F)F)c4)c3)C(=O)[C@H]3CC[C@H](O)CC3)CC2)cc1C [Compound 1.05, trans-4-Hydroxy-N-((trans-4-(4-methoxy-3-methylphenyl)cyclohexyl)methyl)-N-(3-(5-(trifluoromethyl)pyridine-3-yl)phenyl)cyclohexanecarboxamide]
≤ 500 nM | COc1cnc(-c2cccc(N(C[C@H]3CC[C@H](c4ccc(OC)c(C)c4)CC3)C(=O)[C@H]3CC[C@H](O)CC3)c2)cn1 [Compound 2.02, trans-4-Hydroxy-N-((trans-4-(4-methoxy-3-methylphenyl)cyclohexyl)methyl)-N-(3-(5-methoxypyrazin-2-yl)phenyl)cyclohexanecarboxamide]
≥ 1000 nM | COc1ccc([C@H]2CC[C@H](CN(c3cccc(-c4ncn(C)n4)c3)C(=O)[C@H]3CC[C@H](O)CC3)CC2)cc1C [Compound 2.10, trans-4-Hydroxy-N-((trans-4-(4-methoxy-3-methylphenyl)cyclohexyl)methyl)-N-(3-(1-methyl-1H-1,2,4-triazol-3-yl)phenyl)cyclohexanecarboxamide]
≤ 500 nM | COc1ccc([C@H]2CC[C@H](CN(c3cccc(-c4coc(C(C)C)n4)c3)C(=O)[C@H]3CC[C@H](O)CC3)CC2)cc1C [Compound 10.04, trans-4-Hydroxy-N-(3-(2-isopropyloxazol-4-yl)phenyl)-N-((trans-4-(4-methoxy-3-methylphenyl)cyclohexyl)methyl) cyclohexanecarboxamide]
≤ 500 nM | COc1ccc([C@H]2CC[C@H](CN(c3cccc(C#Cc4nncs4)c3)C(=O)[C@H]3CC[C@H](O)CC3)CC2)cc1C [Compound 11.02, trans-N-(3-((1,3,4-Thiadiazol-2-yl)ethynyl)phenyl)-4-hydroxy-N-((trans-4-(4-methoxy-3-methylphenyl)cyclohexyl)methyl) cyclohexanecarboxamide]
≥ 1000 nM | COc1ccc([C@H]2CC[C@H](CN(c3cccc(-c4nc(C)co4)c3)C(=O)[C@H]3CC[C@H](O)CC3)CC2)cc1C [Compound 9.03, trans-4-Hydroxy-N-((trans-4-(4-methoxy-3-methylphenyl)cyclohexyl)methyl)-N-(3-(4-methyloxazol-2-yl)phenyl)cyclohexanecarboxamide]
≥ 1000 nM | COc1ccc([C@H]2CC[C@H](CN(c3cccc(-n4cc(C)nn4)c3)C(=O)[C@H]3CC[C@H](O)CC3)CC2)cc1C [Compound 9.09, trans-4-Hydroxy-N-((trans-4-(4-methoxy-3-methylphenyl)cyclohexyl)methyl)-N-(3-(4-methyl-1H-1,2,3-triazol-1-yl)phenyl)cyclohexanecarboxamide]
≤ 500 nM | COc1ccc([C@H]2CC[C@H](CN(c3cccc(-c4ccc(N5CCCC5)nc4)c3)C(=O)[C@H]3CC[C@H](O)CC3)CC2)cc1C [Compound 1.10, trans-4-Hydroxy-N-((trans-4-(4-methoxy-3-methylphenyl)cyclohexyl)methyl)-N-(3-(6-(pyrrolidin-1-yl)pyridine-3-yl)phenyl)cyclohexanecarboxamide]
≤ 500 nM | COc1ccc([C@H]2CC[C@H](CN(c3cccc(-c4cc(C5CC5)no4)c3)C(=O)[C@H]3CC[C@H](O)CC3)CC2)cc1C [Compound 9.13, trans-N-(3-(3-cyclopropylisoxazol-5-yl)phenyl)-4-hydroxy-N-((trans-4-(4-methoxy-3-methylphenyl)cyclohexyl)methyl) cyclohexanecarboxamide]
≥ 1000 nM | COc1ccc([C@H]2CC[C@H](CN(c3cccc(-c4nnn(C)n4)c3)C(=O)[C@H]3CC[C@H](O)CC3)CC2)cc1C [Compound 5, trans-4-Hydroxy-N-((trans-4-(4-methoxy-3-methylphenyl)cyclohexyl)methyl)-N-(3-(2-methyl-2H-tetrazol-5-yl)phenyl)cyclohexanecarboxamide]
≤ 500 nM | COc1cnc(-c2cccc(N(C[C@H]3CC[C@H](c4ccc(OC)c(C)c4)CC3)C(=O)[C@H]3CC[C@H](O)CC3)c2)nc1 [Compound 2.01, trans-4-Hydroxy-N-((trans-4-(4-methoxy-3-methylphenyl)cyclohexyl)methyl)-N-(3-(5-methoxypyrimidin-2-yl)phenyl)cyclohexanecarboxamide]
